Experimental data published in PubChem BioAssay AID2060895 (Molecular Pharmacology Branch, DTP, NCI, 2025).
pIC50: −log10 of the molar value.

Tested on: PDC 899932-113-R3-J6 complex spheroid viability
Assay: Anticancer human tumor 899932-113-R3-J6-PDC patient-derived melanoma cell line growth inhibition [RAS]
Conditions: for pIC50: curve of first compound; for viability, T/C: stronger effect = lower value
Outline: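 Multi-cell-type spheroids: tumor cells plus HUVEC endothelial cells and mesenchymal stem cells. RAS-pathway inhibitors were combined with targeted agents, each dosed in half-log steps down from clinical Cmax, or from 10 microM when Cmax was unknown.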

[1] = second compound 0.00316 µM, first compound 0.0316 µM
[2] = second compound 0.00316 µM, first compound 0.1 µM
[3] = second compound 0.00316 µM, first compound 0.316 µM
[4] = second compound 0.00316 µM, first compound 1 µM
[5] = second compound 0.00316 µM, first compound 3.16 µM
[6] = second compound 0.00316 µM, first compound 10 µM
[7] = second compound 0.01 µM, first compound 0.0316 µM
[8] = second compound 0.01 µM, first compound 0.1 µM
[9] = second compound 0.01 µM, first compound 0.316 µM
[10] = second compound 0.01 µM, first compound 1 µM
[11] = second compound 0.01 µM, first compound 3.16 µM
[12] = second compound 0.01 µM, first compound 10 µM
[13] = second compound 0.0316 µM, first compound 0.0316 µM
[14] = second compound 0.0316 µM, first compound 0.1 µM
[15] = second compound 0.0316 µM, first compound 0.316 µM
[16] = second compound 0.0316 µM, first compound 1 µM
[17] = second compound 0.0316 µM, first compound 3.16 µM
[18] = second compound 0.0316 µM, first compound 10 µM
[19] = second compound 0.1 µM, first compound 0.0316 µM
[20] = second compound 0.1 µM, first compound 0.1 µM
[21] = second compound 0.1 µM, first compound 0.316 µM
[22] = second compound 0.1 µM, first compound 1 µM
[23] = second compound 0.1 µM, first compound 3.16 µM
[24] = second compound 0.1 µM, first compound 10 µM
[25] = second compound 0.316 µM, first compound 0.0316 µM
[26] = second compound 0.316 µM, first compound 0.1 µM
[27] = second compound 0.316 µM, first compound 0.316 µM
[28] = second compound 0.316 µM, first compound 1 µM
[29] = second compound 0.316 µM, first compound 3.16 µM
[30] = second compound 0.316 µM, first compound 10 µM
[31] = second compound 1 µM, first compound 0.0316 µM
[32] = second compound 1 µM, first compound 0.1 µM
[33] = second compound 1 µM, first compound 0.316 µM
[34] = second compound 1 µM, first compound 1 µM
[35] = second compound 1 µM, first compound 3.16 µM
[36] = second compound 1 µM, first compound 10 µM
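Throughout, for viability, T/C: spheroids exposed to agents for seven days before readout; 100% = DMSO vehicle control wells.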

## CC1(O)CCCC1n1c(=O)c(C(F)F)cc2cnc(NC3CCN(S(C)(=O)=O)CC3)nc21 (stereo unspecified) + C=CC(=O)N1CCN(c2nc(OCC3CCCN3C)nc3c(F)c(-c4nc(N)cc(C)c4C(F)(F)F)c(Cl)cc23)C(C)C1
Second compound 0.00316 µM
  pIC50: 5.74
Second compound 0.01 µM
  pIC50: 5.40
Second compound 0.0316 µM
  pIC50: 5.61
Second compound 0.1 µM
  pIC50: 5.74
Second compound 0.316 µM
  pIC50: 5.48
Second compound 1 µM
  pIC50: 5.48
[1]
  viability, T/C: 99%
[2]
  viability, T/C: 73.6%
[3]
  viability, T/C: 62%
[4]
  viability, T/C: 63.5%
[5]
  viability, T/C: 57.3%
[6]
  viability, T/C: 21.4%
[7]
  viability, T/C: 92%
[8]
  viability, T/C: 81.3%
[9]
  viability, T/C: 71.1%
[10]
  viability, T/C: 69.1%
[11]
  viability, T/C: 64.5%
[12]
  viability, T/C: 19.5%
[13]
  viability, T/C: 94%
[14]
  viability, T/C: 88.2%
[15]
  viability, T/C: 65.8%
[16]
  viability, T/C: 66.2%
[17]
  viability, T/C: 53.1%
[18]
  viability, T/C: 19.2%
[19]
  viability, T/C: 96.2%
[20]
  viability, T/C: 80.4%
[21]
  viability, T/C: 62.2%
[22]
  viability, T/C: 62.7%
[23]
  viability, T/C: 54.5%
[24]
  viability, T/C: 21.5%
[25]
  viability, T/C: 94.7%
[26]
  viability, T/C: 80.1%
[27]
  viability, T/C: 65%
[28]
  viability, T/C: 67.8%
[29]
  viability, T/C: 60%
[30]
  viability, T/C: 17.3%
[31]
  viability, T/C: 88.5%
[32]
  viability, T/C: 81.2%
[33]
  viability, T/C: 63.7%
[34]
  viability, T/C: 62%
[35]
  viability, T/C: 62%
[36]
  viability, T/C: 14%

## CCN1CCN(Cc2ccc(Nc3ncc(F)c(-c4cc(F)c5nc(C)n(C(C)C)c5c4)n3)nc2)CC1 + C=CC(=O)N1CCN(c2nc(OCC3CCCN3C)nc3c(F)c(-c4nc(N)cc(C)c4C(F)(F)F)c(Cl)cc23)C(C)C1
Second compound 0.00316 µM
  pIC50: 6.38
Second compound 0.01 µM
  pIC50: 6.34
Second compound 0.0316 µM
  pIC50: 6.35
Second compound 0.1 µM
  pIC50: 6.37
Second compound 0.316 µM
  pIC50: 6.33
Second compound 1 µM
  pIC50: 6.41
Second compound 0.00316 µM, first compound 0.00316 µM
  viability, T/C: 102%
Second compound 0.00316 µM, first compound 0.01 µM
  viability, T/C: 92.3%
[1]
  viability, T/C: 88.7%
[2]
  viability, T/C: 78%
[3]
  viability, T/C: 62.2%
[4]
  viability, T/C: 18.8%
Second compound 0.01 µM, first compound 0.00316 µM
  viability, T/C: 99.9%
Second compound 0.01 µM, first compound 0.01 µM
  viability, T/C: 98.5%
[7]
  viability, T/C: 95.6%
[8]
  viability, T/C: 85.5%
[9]
  viability, T/C: 63%
[10]
  viability, T/C: 22.6%
Second compound 0.0316 µM, first compound 0.00316 µM
  viability, T/C: 98.4%
Second compound 0.0316 µM, first compound 0.01 µM
  viability, T/C: 101%
[13]
  viability, T/C: 103%
[14]
  viability, T/C: 89.5%
[15]
  viability, T/C: 63%
[16]
  viability, T/C: 20.6%
Second compound 0.1 µM, first compound 0.00316 µM
  viability, T/C: 109%
Second compound 0.1 µM, first compound 0.01 µM
  viability, T/C: 94%
[19]
  viability, T/C: 85.7%
[20]
  viability, T/C: 83%
[21]
  viability, T/C: 61.2%
[22]
  viability, T/C: 24%
Second compound 0.316 µM, first compound 0.00316 µM
  viability, T/C: 101%
Second compound 0.316 µM, first compound 0.01 µM
  viability, T/C: 106%
[25]
  viability, T/C: 90.5%
[26]
  viability, T/C: 81%
[27]
  viability, T/C: 65.9%
[28]
  viability, T/C: 23.9%
Second compound 1 µM, first compound 0.00316 µM
  viability, T/C: 107%
Second compound 1 µM, first compound 0.01 µM
  viability, T/C: 104%
[31]
  viability, T/C: 93%
[32]
  viability, T/C: 72.8%
[33]
  viability, T/C: 64.3%
[34]
  viability, T/C: 18%

## C[C@@H](NC(=O)c1ncnc(N)c1Cl)c1ncc(C(=O)Nc2cc(C(F)(F)F)c(Cl)cn2)s1 + C=CC(=O)N1CCN(c2nc(OCC3CCCN3C)nc3c(F)c(-c4nc(N)cc(C)c4C(F)(F)F)c(Cl)cc23)C(C)C1
Second compound 0.00316 µM
  pIC50: 5.16
Second compound 0.01 µM
  pIC50: 5.15
Second compound 0.0316 µM
  pIC50: 5.14
Second compound 0.1 µM
  pIC50: 5.13
Second compound 0.316 µM
  pIC50: 5.13
Second compound 1 µM
  pIC50: 5.12
[1]
  viability, T/C: 131%
[2]
  viability, T/C: 152%
[3]
  viability, T/C: 169%
[4]
  viability, T/C: 164%
[5]
  viability, T/C: 103%
[6]
  viability, T/C: 25.8%
[7]
  viability, T/C: 140%
[8]
  viability, T/C: 153%
[9]
  viability, T/C: 153%
[10]
  viability, T/C: 154%
[11]
  viability, T/C: 106%
[12]
  viability, T/C: 25%
[13]
  viability, T/C: 121%
[14]
  viability, T/C: 143%
[15]
  viability, T/C: 157%
[16]
  viability, T/C: 154%
[17]
  viability, T/C: 104%
[18]
  viability, T/C: 29.1%
[19]
  viability, T/C: 142%
[20]
  viability, T/C: 152%
[21]
  viability, T/C: 153%
[22]
  viability, T/C: 160%
[23]
  viability, T/C: 115%
[24]
  viability, T/C: 26.9%
[25]
  viability, T/C: 136%
[26]
  viability, T/C: 136%
[27]
  viability, T/C: 168%
[28]
  viability, T/C: 161%
[29]
  viability, T/C: 108%
[30]
  viability, T/C: 29.3%
[31]
  viability, T/C: 124%
[32]
  viability, T/C: 144%
[33]
  viability, T/C: 149%
[34]
  viability, T/C: 151%
[35]
  viability, T/C: 114%
[36]
  viability, T/C: 29.9%
